“And” between values parts separate entries of the source, which are not always exact repeats. Equal entries are not always repeated. Toxic doses and inconclusive results are not listed. Rule as the data show it: active = T/C of 150% or more; inactive = T/C below 125%.
Test system: L1210 leukemia ip in BDF1 mice, survival T/C
Experiment: NCI In Vivo Anticancer Drug Screen. Data for tumor model L1210 Leukemia (intraperitoneal) in B6D2F1 (BDF1) mice
Conditions: endpoint: mean survival time, higher = longer survival
How it was run: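 Ratio derived from survival: compound-dosed mice over vehicle-dosed mice, all bearing a transplantable tumor.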

[1] = dose: 12.5 mg/kg/injection, schedule: Q01DX009 (ip), vehicle: saline with Tween-80
[2] = dose: 25.0 mg/kg/injection, schedule: Q01DX009 (ip), vehicle: saline with Tween-80
[3] = dose: 100.0 mg/kg/injection, schedule: Q01DX009 (ip), vehicle: saline with Tween-80
[4] = dose: 100.0 mg/kg/injection, schedule: Q04DX003 (ip), vehicle: saline with Tween-80
[5] = dose: 200.0 mg/kg/injection, schedule: Q04DX003 (ip), vehicle: saline with Tween-80
[6] = dose: 100.0 mg/kg/injection, schedule: Q01DX009 (ip), vehicle: Klucel (hydroxypropylcellulose) (HPC)
[7] = dose: 100.0 mg/kg/injection, schedule: Q04DX003 (ip), vehicle: Klucel (hydroxypropylcellulose) (HPC)
[8] = dose: 200.0 mg/kg/injection, schedule: Q01DX009 (ip), vehicle: Klucel (hydroxypropylcellulose) (HPC)
[9] = dose: 200.0 mg/kg/injection, schedule: Q04DX003 (ip), vehicle: Klucel (hydroxypropylcellulose) (HPC)
[10] = dose: 400.0 mg/kg/injection, schedule: Q01DX009 (ip), vehicle: Klucel (hydroxypropylcellulose) (HPC)
[11] = dose: 400.0 mg/kg/injection, schedule: Q04DX003 (ip), vehicle: Klucel (hydroxypropylcellulose) (HPC)
[12] = dose: 400.0 mg/kg/injection, schedule: Q01DX001 (ip), vehicle: saline
[13] = dose: 100.0 mg/kg/injection, schedule: Q01DX001 (ip), vehicle: saline
[14] = dose: 200.0 mg/kg/injection, schedule: Q01DX001 (ip), vehicle: saline
[15] = dose: 100.0 mg/kg/injection, schedule: Q04DX002 (ip), vehicle: saline with Tween-80
[16] = dose: 200.0 mg/kg/injection, schedule: Q04DX002 (ip), vehicle: saline with Tween-80

Measured: T/C

O=C(Nc1ccc(C2=NCCS2)cc1)c1ccc(C(=O)Nc2ccc(C3=NCCS3)cc2)cc1
inactive: dose: 15.0 mg/kg/injection, schedule: Q01DX Z (ip), vehicle: carboxymethylcellulose (CMC) 98 % of control | dose: 30.0 mg/kg/injection, schedule: Q01DX Z (ip), vehicle: carboxymethylcellulose (CMC) 96 % of control | dose: 60.0 mg/kg/injection, schedule: Q01DX Z (ip), vehicle: carboxymethylcellulose (CMC) 95 % of control | dose: 120.0 mg/kg/injection, schedule: Q01DX Z (ip), vehicle: carboxymethylcellulose (CMC) 96 % of control | dose: 125.0 mg/kg/injection, schedule: Q01DX Z (ip), vehicle: water 98 % of control

O=[N+]([O-])c1cc([N+](=O)[O-])c(Cl)s1
inactive: [1] 97 % of control | [2] 91 % of control

CSc1ccc(NC(=O)Nc2cccc(F)c2)cc1
inactive: dose: 100.0 mg/kg/injection, schedule: Q01DX009 (ip), vehicle: other 108 % of control | dose: 200.0 mg/kg/injection, schedule: Q01DX009 (ip), vehicle: other 96 % of control

O=C(O)c1cccc(C(=O)c2ccccc2)c1O
inactive: dose: 100.0 mg/kg/injection, schedule: Q01DX001 (ip), vehicle: carboxymethylcellulose (CMC) 97 % of control | dose: 200.0 mg/kg/injection, schedule: Q01DX001 (ip), vehicle: carboxymethylcellulose (CMC) 100 % of control | dose: 400.0 mg/kg/injection, schedule: Q01DX001 (ip), vehicle: carboxymethylcellulose (CMC) 92 % of control

CC1CCCNC1C (stereo unspecified)
inactive: dose: 25.0 mg/kg/injection, schedule: Q01DX009 (ip), vehicle: saline 95 % of control | dose: 50.0 mg/kg/injection, schedule: Q01DX009 (ip), vehicle: saline 103 % of control | [3] 102 % of control | dose: 100.0 mg/kg/injection, schedule: Q01DX009 (ip), vehicle: saline 100 % of control

Cc1ncc2c(=O)n(-c3ccc(Br)cc3)[nH]c2n1
inactive: dose: 100.0 mg/kg/injection, schedule: Q04DX003 (ip), vehicle: gum acacia 96 % of control | dose: 200.0 mg/kg/injection, schedule: Q04DX003 (ip), vehicle: gum acacia 97 % of control | dose: 400.0 mg/kg/injection, schedule: Q04DX003 (ip), vehicle: gum acacia 92 % of control

COc1ccc2nc(N)sc2c1
inactive: [1] 96 % of control | [2] 89 % of control | dose: 50.0 mg/kg/injection, schedule: Q01DX009 (ip), vehicle: saline with Tween-80 97 % of control and 91 % of control | dose: 50.0 mg/kg/injection, schedule: Q04DX003 (ip), vehicle: saline with Tween-80 107 % of control | [4] 112 % of control | [5] 93 % of control

COc1ccc(-n2c(=O)c(N=Nc3ccc(Cl)cc3)c(O)n(-c3ccc(Br)cc3)c2=S)cc1
inactive: dose: 100.0 mg/kg/injection, schedule: Q01DX001 (ip), vehicle: Klucel (hydroxypropylcellulose) (HPC) 94 % of control | dose: 200.0 mg/kg/injection, schedule: Q01DX001 (ip), vehicle: Klucel (hydroxypropylcellulose) (HPC) 94 % of control | dose: 400.0 mg/kg/injection, schedule: Q01DX001 (ip), vehicle: Klucel (hydroxypropylcellulose) (HPC) 92 % of control

CC(C)(C[NH-])C[NH-].CC(C)(C[NH-])C[NH-].CC(C)(C[NH-])C[NH-].[Co]
inactive: dose: 48.0 mg/kg/injection, schedule: Q01DX Z (ip), vehicle: saline 121 % of control | dose: 73.0 mg/kg/injection, schedule: Q01DX Z (ip), vehicle: saline 121 % of control | dose: 110.0 mg/kg/injection, schedule: Q01DX Z (ip), vehicle: saline 119 % of control | dose: 165.0 mg/kg/injection, schedule: Q01DX Z (ip), vehicle: saline 116 % of control

Cc1cccc(NS(=O)(=O)c2ccc(Cl)cc2)c1C
inactive: [6] 109 % of control | [7] 96 % of control | [8] 105 % of control | [9] 94 % of control | [10] 94 % of control | [11] 103 % of control

N#CCCC(C#N)(C#N)CCC#N
inactive: dose: 175.0 mg/kg/injection, schedule: Q01DX001 (ip), vehicle: saline 97 % of control | dose: 265.0 mg/kg/injection, schedule: Q01DX001 (ip), vehicle: saline 100 % of control | [12] 96 % of control | dose: 600.0 mg/kg/injection, schedule: Q01DX001 (ip), vehicle: saline 91 % of control

COc1cccc(/C=C2\N=C(c3ccccc3)OC2=O)c1
inactive: [3] 102 % of control | [4] 97 % of control | dose: 200.0 mg/kg/injection, schedule: Q01DX009 (ip), vehicle: saline with Tween-80 107 % of control | [5] 94 % of control | dose: 400.0 mg/kg/injection, schedule: Q01DX009 (ip), vehicle: saline with Tween-80 102 % of control and 90 % of control | dose: 400.0 mg/kg/injection, schedule: Q04DX003 (ip), vehicle: saline with Tween-80 93 % of control

CC(C)(C)C(=O)/C=C/c1ccc(Cl)cc1
inactive: dose: 100.0 mg/kg/injection, schedule: Q04DX002 (ip), vehicle: gum acacia 93 % of control | dose: 200.0 mg/kg/injection, schedule: Q04DX002 (ip), vehicle: gum acacia 97 % of control | dose: 400.0 mg/kg/injection, schedule: Q04DX002 (ip), vehicle: gum acacia 104 % of control

NNC(=O)CCNCCC(=O)NN
inactive: dose: 100.0 mg/kg/injection, schedule: Q04DX002 (ip), vehicle: saline + alcohol 94 % of control | dose: 200.0 mg/kg/injection, schedule: Q04DX002 (ip), vehicle: saline + alcohol 88 % of control

CCN1/C(=C/C=C2/SC(=S)N(CC(=O)O)C2=O)Oc2ccccc21
inactive: dose: 50.0 mg/kg/injection, schedule: Q01DX001 (ip), vehicle: saline 100 % of control | [13] 96 % of control | [14] 100 % of control | [12] 106 % of control

CN(C)CCOC(c1ccccc1)c1ccccc1 (tested in a mixture with another compound)
inactive: [13] 109 % of control | [14] 101 % of control | [12] 95 % of control

CNC(=O)CCN1CCN(CC/C=C2\c3ccccc3Sc3ccc(Cl)cc32)CC1
inactive: dose: 1.56 mg/kg/injection, schedule: Q03HX024 (ip), vehicle: saline 95 % of control | dose: 2.05 mg/kg/injection, schedule: Q01DX009 (ip), vehicle: saline 90 % of control | dose: 3.12 mg/kg/injection, schedule: Q03HX024 (ip), vehicle: saline 100 % of control | dose: 4.1 mg/kg/injection, schedule: Q01DX009 (ip), vehicle: saline 94 % of control | dose: 8.2 mg/kg/injection, schedule: Q01DX009 (ip), vehicle: saline 111 % of control | dose: 16.5 mg/kg/injection, schedule: Q01DX009 (ip), vehicle: saline 111 % of control | dose: 18.75 mg/kg/injection, schedule: Q01DX001 (ip), vehicle: saline 106 % of control | dose: 25.0 mg/kg/injection, schedule: Q04DX003 (ip), vehicle: saline 122 % of control | dose: 37.5 mg/kg/injection, schedule: Q01DX001 (ip), vehicle: saline 108 % of control | dose: 75.0 mg/kg/injection, schedule: Q01DX001 (ip), vehicle: saline 106 % of control | dose: 100.0 mg/kg/injection, schedule: Q04DX003 (ip), vehicle: saline 114 % of control | dose: 150.0 mg/kg/injection, schedule: Q01DX001 (ip), vehicle: saline 106 % of control

COc1cc(/C=N\N=C(/C)c2ccc(C)cc2C)cc(OC)c1OC
inactive: [15] 88 % of control | [16] 92 % of control

BrCC1OCC2(CO1)COC(CBr)OC2 (stereo unspecified)
inactive: [7] 96 % of control | [9] 104 % of control

COC1OC(COC(C)=O)C(OC(C)=O)C1OC(C)=O (stereo unspecified)
inactive: [13] 102 % of control | [14] 104 % of control | [12] 93 % of control

CCOC(=N)CC(O)C(Cl)(Cl)Cl (stereo unspecified)
inactive: [15] 99 % of control | [16] 103 % of control | dose: 400.0 mg/kg/injection, schedule: Q04DX002 (ip), vehicle: saline with Tween-80 92 % of control

O=C(O)c1ccc(N=Cc2c(Cl)cccc2Cl)cc1
inactive: [6] 104 % of control | [8] 101 % of control | [10] 104 % of control

CC(C)OC(=O)Nc1ccc(-c2ccc(NC(=O)OC(C)C)cc2)cc1
inactive: [6] 95 % of control | [7] 91 % of control | [8] 97 % of control | [9] 91 % of control | [10] 97 % of control | [11] 98 % of control
